Here are results for 15 compounds from ChEMBL document CHEMBL1145897, “Synthesis and biological evaluation of 2,4-diamino-6-(arylaminomethyl)pyrido[2,3-d]pyrimidines as inhibitors of Pneumocystis carinii and Toxoplasma gondii dihydrofolate reductase and as antiopportunistic infection and antitumor agents” (J Med Chem, 2003).

The target of one assay is T1, Dihydrofolate reductase (Rattus norvegicus, UniProt Q920D2).
T1 sequence (Q920D2 whole entry): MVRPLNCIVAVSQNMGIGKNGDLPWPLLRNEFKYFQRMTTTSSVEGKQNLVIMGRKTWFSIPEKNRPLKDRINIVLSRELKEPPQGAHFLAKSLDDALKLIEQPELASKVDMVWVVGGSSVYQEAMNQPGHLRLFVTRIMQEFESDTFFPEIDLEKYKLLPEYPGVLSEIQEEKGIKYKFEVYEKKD

The subject of the next assay is COLO 205. Briefly: […] cytotoxic evaluation against colon cancer COLO 205 cell line. The assay is classed as functional, Homo sapiens.
Another assay concerns MDA-MB-435. The assay is described as follows: […] cytotoxic evaluation against breast cancer MDA-MB-435 cell line. The format is functional, Homo sapiens.
The subject of the next assay is MDA-N. The assay is described as follows: […] cytotoxic evaluation against breast cancer MDA-N cell line. The assay is classed as functional, Homo sapiens.
In another assay the test system is EKVX. Briefly: […] cytotoxic evaluation against human lung cancer EKVX cell line. The format is functional.
The subject of a further assay is SK-MEL-5. The assay is described as follows: […] cytotoxic evaluation against melanoma SK-MEL-5 cell line. The assay is classed as functional, Homo sapiens.
Assay [1] has as its system Pneumocystis carinii. The assay is described as follows: Inhibitory activity against cell growth of pneumocystis carinii measured by direct counting of organisms in the culture supernatant fluid at 10 uM.
For another assay, the system named is LOX IMVI. The assay is described as follows: […] cytotoxic evaluation against melanoma LOX IMVI cell line. The format is functional, Homo sapiens.
In the next assay the test system is MOLT-4. The assay is described as follows: […] cytotoxic evaluation against human leukemic Molt-4 cell line. The format is functional.
In assay [2] the test system is Toxoplasma gondii. The assay is described as follows: Inhibitory activity against cell growth of Toxoplasma gondii measured by the incorporation of [3H]uracil at […].
For another assay, the system named is HCC 2998. The assay is described as follows: […] cytotoxic evaluation against colon cancer HCC2998 cell line. The assay is classed as functional, Homo sapiens.
A further assay deals with K562. The assay is described as follows: […] cytotoxic evaluation against human leukemic K-562 cell line. The format is functional.
Another assay deals with HCT-116. The assay is described as follows: In vitro cytotoxic evaluation against colon cancer HCT116 cell line.
For a further assay, the system named is SF-295. The assay is described as follows: […] cytotoxic evaluation against CNS cancer SF-295 cell line. The format is functional, Homo sapiens.
In assay [3] the test system is Toxoplasma gondii. The assay is described as follows: Inhibitory activity against cell growth of Toxoplasma gondii measured by the incorporation of [3H]uracil at <=10 uM.
A short description of assay [4]: Ratio of inhibitory activity against dihydrofolate reductase of rat liver to Toxoplasma gondii.
Assay [5] in a line: Ratio of inhibitory activity against dihydrofolate reductase of rat liver to pneumocystis carinii.
Assay [6] has as its system Pneumocystis carinii. Briefly: Inhibitory activity against cell growth of pneumocystis carinii measured by direct counting of organisms in the culture supernatant fluid at 50.7 uM.
Assay [7] concerns Toxoplasma gondii. The assay is described as follows: Inhibitory activity against cell growth of Toxoplasma gondii measured by the incorporation of [3H]uracil at 7.8 uM.
Assay [8] concerns Toxoplasma gondii. Briefly: Inhibitory activity against cell growth of Toxoplasma gondii measured by the incorporation of [3H]uracil at 10 uM.

In general, IC50 refers to the concentration that inhibits the measured activity by half. For orientation: GI50 means the concentration at which growth is held to half of that of the control. A word on the inhibition: it is the percentage by which the read-out fell short of the control. By Inhibition is commonly meant how much of the control response was suppressed. The low end stands for little suppression, the high end for strong suppression.

Description for Dihydrofolate reductase: Inhibition of dihydrofolate reductase from rat liver.

The compound `COc1cccc(NCc2cnc3nc(N)nc(N)c3c2)c1` displayed an IC50 against Dihydrofolate reductase of 0.79 µM.
Take `Nc1nc(N)c2cc(CNc3cc(Cl)ccc3Cl)cnc2n1`: the GI50 in the assay on COLO 205 is 2.3 µM; with MDA-MB-435, 2.4 µM; with MDA-N, 3 µM; in the assay on EKVX, 6.6 µM; in the assay with SK-MEL-5, 2.2 µM; in the assay on LOX IMVI it was 0.71 µM. Also, the GI50 in the assay on MOLT-4 amounted to 2 µM; in the assay with HCC 2998 it was 3 µM; in the assay on K562, 1.6 µM; with HCT-116, 2.1 µM; in the assay with SF-295, 4 µM. The compound further had an IC50 against Dihydrofolate reductase of 6.9 µM. Besides, the inhibition at 10 µM in the assay with Pneumocystis carinii [1] is 88%. In the assay with Toxoplasma gondii [2], the inhibition at […] was 50%.
In the assay on Toxoplasma gondii [3], `Nc1nc(N)c2cc(CNc3ccccc3)cnc2n1` returned an Inhibition of 0%.
Consider `COc1cc(NCc2cnc3nc(N)nc(N)c3c2C)cc(OC)c1OC`, for which the Ratio in [4] was determined as 0.3; in [5], 0.02.
With `Nc1nc(N)c2cc(CNc3cccc4ccccc34)cnc2n1`, the IC50 on Dihydrofolate reductase came out at 0.6 µM. This compound also returned an inhibition at 50.7 µM in the assay on Pneumocystis carinii [6] of 50%. Moreover, the inhibition at 7.8 µM with Toxoplasma gondii [7] is 50%.
Take `Nc1nc(N)c2cc(CNc3ccc4ccccc4c3)cnc2n1`: the 50% growth inhibitory concentration (GI50) is 2.4 µM in the assay with COLO 205; 10 µM in the assay on MDA-MB-435; 4.4 µM in the assay on MDA-N; 9 µM with EKVX; 3.2 µM in the assay on SK-MEL-5; 1.6 µM in the assay on LOX IMVI. In addition, the GI50 with MOLT-4 worked out at 2 µM; in the assay with HCC 2998, 1.1 µM; in the assay with K562, 0.5 µM; with HCT-116 it was 1.9 µM; in the assay on SF-295, 8.2 µM. The same compound registered a half-inhibitory concentration (IC50) against Dihydrofolate reductase of 4.9 µM.
In turn, `COc1ccc(OC)c(NCc2cnc3nc(N)nc(N)c3c2)c1` registered a 50% inhibitory concentration (IC50) against Dihydrofolate reductase of 5 µM. Moreover, the inhibition at 10 µM in the assay with Toxoplasma gondii [8] was less than 50%.
As to `Nc1nc(N)c2cc(CNc3cc(Cl)c(Cl)c(Cl)c3)cnc2n1`, the concentration for 50% growth inhibition (GI50) in the assay with COLO 205 came to 0.31 µM; in the assay with MDA-MB-435, 0.57 µM; in the assay with MDA-N it was 0.5 µM; in the assay on EKVX, 0.85 µM; in the assay on SK-MEL-5 it was 0.35 µM; in the assay with LOX IMVI it was 0.031 µM. For the same compound, the GI50 is 0.71 µM with MOLT-4; 0.78 µM in the assay on HCC 2998; 0.35 µM in the assay on K562; 0.74 µM with HCT-116; 0.74 µM with SF-295. At Dihydrofolate reductase, the IC50 stood at 4.6 µM.
With `COc1cc(NCc2ccc3nc(N)nc(N)c3c2C)cc(OC)c1OC`, the Ratio in assay [4] came out at 0.3; in assay [5], 0.07.
`CN(Cc1cnc2nc(N)nc(N)c2c1)c1ccc(Cl)c(Cl)c1`: half-maximal inhibition against Dihydrofolate reductase (IC50) required 0.18 µM.
Still for that read-out and setting: the result for `CN(Cc1cnc2nc(N)nc(N)c2c1)c1cc(Cl)c(Cl)c(Cl)c1` reads 0.27 µM; that for `CN(Cc1cnc2nc(N)nc(N)c2c1)c1ccccc1`, 395 µM.
For `Nc1nc(N)c2cc(CNc3ccc(Cl)c(Cl)c3)cnc2n1`, the GI50 turned out to be 1.7 µM in the assay with COLO 205; 1.3 µM in the assay with MDA-MB-435; 0.95 µM in the assay on MDA-N; 2.4 µM in the assay with EKVX; 1.1 µM in the assay with SK-MEL-5; 0.82 µM in the assay with LOX IMVI. Also, the concentration for 50% growth inhibition (GI50) was 1.1 µM in the assay on MOLT-4; 2.7 µM in the assay on HCC 2998; 0.33 µM in the assay with K562; 0.62 µM in the assay with HCT-116; 3.8 µM in the assay on SF-295. On Dihydrofolate reductase, this compound displayed an IC50 of 0.48 µM.
With `COc1ccc(OC)c(CN(C)c2cnc3nc(N)nc(N)c3c2)c1`, the values for the Ratio in assay [4] and in [5] were 9 and 0.7, respectively.
On Dihydrofolate reductase, `COc1ccc(NCc2cnc3nc(N)nc(N)c3c2)cc1OC` registered an IC50 of 0.56 µM.
